Measured values from US10975084B2, “KDM5 inhibitors” (Merck Sharp & Dohme Corp., priority 2016, dated 2021).

Each compound was assayed against KDM5B (Homo sapiens (Human), UniProt Q9UGL1) (assay: KDM5B TR-FRET Enzyme Activity Assay). Details: LANCE TR-FRET; 5 nM full-length recombinant KDM5B; ten point titration 100000 nM to 5.08 nM.
KDM5B, sequence (Q9UGL1 whole entry): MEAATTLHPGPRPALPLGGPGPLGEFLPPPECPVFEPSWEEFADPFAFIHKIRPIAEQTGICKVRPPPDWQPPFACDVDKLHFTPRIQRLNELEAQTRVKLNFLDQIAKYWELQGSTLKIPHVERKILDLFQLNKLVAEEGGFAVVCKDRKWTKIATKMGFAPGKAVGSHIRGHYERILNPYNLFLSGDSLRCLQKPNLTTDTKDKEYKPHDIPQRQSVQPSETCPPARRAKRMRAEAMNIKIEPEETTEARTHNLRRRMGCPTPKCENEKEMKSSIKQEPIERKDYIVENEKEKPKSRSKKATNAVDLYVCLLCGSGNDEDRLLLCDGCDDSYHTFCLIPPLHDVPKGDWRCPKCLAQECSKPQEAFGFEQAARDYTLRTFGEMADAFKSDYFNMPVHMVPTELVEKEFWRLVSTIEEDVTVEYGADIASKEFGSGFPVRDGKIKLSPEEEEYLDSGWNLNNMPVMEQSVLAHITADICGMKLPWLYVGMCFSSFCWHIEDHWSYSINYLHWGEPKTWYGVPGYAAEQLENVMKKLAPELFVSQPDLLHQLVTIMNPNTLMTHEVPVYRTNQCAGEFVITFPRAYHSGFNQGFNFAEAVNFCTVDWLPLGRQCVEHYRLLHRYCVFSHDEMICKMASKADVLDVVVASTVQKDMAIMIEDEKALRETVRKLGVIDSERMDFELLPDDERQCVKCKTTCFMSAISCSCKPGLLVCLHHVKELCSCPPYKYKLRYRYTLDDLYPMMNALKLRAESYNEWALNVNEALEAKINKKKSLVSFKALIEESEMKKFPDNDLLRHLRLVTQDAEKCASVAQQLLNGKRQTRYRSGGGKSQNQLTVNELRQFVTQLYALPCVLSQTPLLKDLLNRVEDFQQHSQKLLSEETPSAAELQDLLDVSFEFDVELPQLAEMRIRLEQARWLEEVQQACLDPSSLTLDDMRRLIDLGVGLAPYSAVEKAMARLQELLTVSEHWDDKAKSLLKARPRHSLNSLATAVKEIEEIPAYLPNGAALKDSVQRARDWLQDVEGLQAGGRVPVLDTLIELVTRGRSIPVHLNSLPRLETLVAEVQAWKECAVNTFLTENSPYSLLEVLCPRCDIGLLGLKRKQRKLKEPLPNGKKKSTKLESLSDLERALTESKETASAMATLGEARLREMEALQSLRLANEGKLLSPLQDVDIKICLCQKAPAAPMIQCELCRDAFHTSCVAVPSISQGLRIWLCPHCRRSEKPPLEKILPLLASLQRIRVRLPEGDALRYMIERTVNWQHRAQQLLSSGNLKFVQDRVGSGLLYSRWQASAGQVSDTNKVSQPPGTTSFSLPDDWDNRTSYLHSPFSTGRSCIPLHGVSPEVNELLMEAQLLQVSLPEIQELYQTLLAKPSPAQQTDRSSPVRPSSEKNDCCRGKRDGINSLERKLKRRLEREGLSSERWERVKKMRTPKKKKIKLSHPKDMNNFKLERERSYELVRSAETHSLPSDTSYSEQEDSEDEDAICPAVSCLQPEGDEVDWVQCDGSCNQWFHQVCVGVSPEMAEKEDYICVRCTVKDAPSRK
Format: biochemical
Method: KDM5B TR-FRET Enzyme Activity Assay
KDM5B enzymatic activity was determined with the LANCE (Lanthanide Chelate Excite) TR-FRET (Time-resolved fluorescence resonance energy transfer) assay. […] To each well of a white Greiner 1536 Lumitrac 1536 well-plate, 50 nL of compound (100 fold dilution in final assay volume of 5 μL) was dispensed, followed by the addition of 4 μL of 1× assay buffer (50 mM Hepes 7.3, 0.5 mM TCEP, 0.005% Brij-35, 0.02% BSA, 50 μM Na-L-Ascorbate and 2 μM AmFe(II)Sulfate) containing 5 nM of Full-length KDM5B enzyme (recombinant protein from baculovirus-transfected Sf21 cells: full-length KDM5B; MW=176.825 kDa). Following a 30 minutes compound and enzyme incubation in a humidified chamber, each reaction was initiated by the addition of 1 μL 1× assay buffer containing […] biotinylated H3K4Me3 peptide, and 500 nM α-ketoglutarate. The final reaction in each well of 5 μL consists of 5 nM KDM5B, 500 nM biotinylated-peptide, and 500 nM α-ketoglutarate. De-methylation reactions were allowed to proceed for 60 minutes. Reactions were immediately quenched by the addition of 5 uL of 2× Lance Detection Buffer (PerkinElmer) with 0.5 mM EDTA and 2 nM of Eu-anti-H3K4Me1-2 antibody, and 30 nM of Streptavidin-conjugated Dylight 650 detection reagents. After 60 minutes incubation with detection reagents, reaction plates were read on a PerkinElmer EnVision plate reader using standard TR-FRET protocol. Briefly, excitation of donor molecules (Eu-chelate-anti-H3K4Me1-2-antibody) with a laser light source at 337 nm produces energy that can be transferred to Dylight-650 acceptor molecules if this donor:acceptor pair is within close proximity. Fluorescence intensity at both 665 nm (acceptor) and 615 nm (donor) are measured and a TR-FRET ratio calculated for each well (acceptor intensity/donor intensity). IC50 values were determined by 4 parameter robust fit of TR-FRET ratio values vs. (Log 10) compound concentrations.
An IC50 of 0.0598 µM was found for CC(C)c1csc(-c2[nH]c3ncnn3c(=O)c2C(C)C)c1 [Example 11-141, 6-(1-methylethyl)-5-[4-(1-methylethyl)thiophen-2-yl][1,2,4]triazolo[1,5-a]pyrimidin-7(4H)-one] in this work.
An IC50 of 0.0133 µM was found for CC(C)c1c(-c2cn[nH]c2)[nH]c2ncnn2c1=O [Example 11-122, 6-(1-methylethyl)-5-(1H-pyrazol-4-yl)[1,2,4]triazolo[1,5-a]pyrimidin-7(4H)-one] in this work.
An IC50 of 0.0225 µM was found for CC(C)c1c(-c2cncc(CO)c2)[nH]c2ncnn2c1=O [Example 12-3, 5-[5-(hydroxymethyl)pyridin-3-yl]-6-(1-methylethyl)[1,2,4]triazolo[1,5-a]pyrimidin-7(4H)-one] in this work.
An IC50 of 0.0117 µM was found for CC(C)c1c(-c2cnn(CCO)c2)[nH]c2ncnn2c1=O [Example 11-111, 5-[1-(2-hydroxyethyl)-1H-pyrazol-4-yl]-6-(1-methylethyl)[1,2,4]triazolo[1,5-a]pyrimidin-7(4H)-one] in this work.
An IC50 of 6.79 µM was found for O=c1cc(-c2ccco2)[nH]c2ncnn12 [Example 8-24, 5-furan-2-yl[1,2,4]triazolo[1,5-a]pyrimidin-7(4H)-one] in this work.
An IC50 of 0.254 µM was found for CC(C)c1c(C2=COCCC2)[nH]c2ncnn2c1=O [Example 11-30, 5-(3,4-dihydro-2H-pyran-5-yl)-6-(1-methylethyl)[1,2,4]triazolo[1,5-a]pyrimidin-7(4H)-one] in this work.
An IC50 of 0.0116 µM was found for CC(C)c1c(-c2ccc(N3CCOCC3)nc2)[nH]c2ncnn2c1=O [Example 11-127, 6-(1-methylethyl)-5-(6-morpholin-4-ylpyridin-3-yl)[1,2,4]triazolo[1,5-a]pyrimidin-7(4H)-one] in this work.
An IC50 of 1.03 µM was found for O=c1c(C2CCC2)c(-c2ccc(F)cc2)[nH]c2ncnn12 [Example 8-40, 6-cyclobutyl-5-(4-fluorophenyl)[1,2,4]triazolo[1,5-a]pyrimidin-7(4H)-one] in this work.
An IC50 of 0.0075 µM was found for CC(C)c1c(-c2cnn(Cc3ccncc3)c2)[nH]c2ncnn2c1=O [Example 11-15, 6-(1-methylethyl)-5-[1-(pyridin-4-ylmethyl)-1H-pyrazol-4-yl][1,2,4]triazolo[1,5-a]pyrimidin-7(4H)-one] in this work.
An IC50 of 0.0463 µM was found for CC(C)c1c(-c2cccc(N3CCOCC3)c2)[nH]c2ncnn2c1=O [Example 11-44, 6-(1-methylethyl)-5-(3-morpholin-4-ylphenyl)[1,2,4]triazolo[1,5-a]pyrimidin-7(4H)-one] in this work.
An IC50 of 0.444 µM was found for Cc1nc(-c2ccccc2)sc1-c1[nH]c2ncnn2c(=O)c1C(C)C [Example 11-116, 6-(1-methylethyl)-5-(4-methyl-2-phenyl-1,3-thiazol-5-yl)[1,2,4]triazolo[1,5-a]pyrimidin-7(4H)-one] in this work.
An IC50 of 0.0213 µM was found for CC(C)c1c(-c2ccc3ncn(C4CC4)c3c2)[nH]c2ncnn2c1=O [Example 11-89, 5-(1-cyclopropyl-1H-benzimidazol-6-yl)-6-(1-methylethyl)[1,2,4]triazolo[1,5-a]pyrimidin-7(4H)-one] in this work.
An IC50 of 0.0751 µM was found for CC(C)c1c(-c2cnn3c2CCCC3)[nH]c2ncnn2c1=O [Example 11-53, 6-(1-methylethyl)-5-(4,5,6,7-tetrahydropyrazolo[1,5-a]pyridin-3-yl)[1,2,4]triazolo[1,5-a]pyrimidin-7(4H)-one] in this work.
An IC50 of 0.0277 µM was found for COC/C=C/c1[nH]c2ncnn2c(=O)c1C(C)C [Example 11-23, 5-[(1E)-3-methoxyprop-1-en-1-yl]-6-(1-methylethyl)[1,2,4]triazolo[1,5-a]pyrimidin-7(4H)-one] in this work.
An IC50 of 0.0332 µM was found for CC(C)c1c(-c2cccc(CN3CCCCC3)c2)[nH]c2ncnn2c1=O [Example 11-49, 6-(1-methylethyl)-5-[3-(piperidin-1-ylmethyl)phenyl][1,2,4]triazolo[1,5-a]pyrimidin-7(4H)-one] in this work.
An IC50 of 0.136 µM was found for CC(C)c1c(-c2cccc(F)c2)[nH]c2ncnn2c1=O [Example 11-33, 5-(3-fluorophenyl)-6-(1-methylethyl)[1,2,4]triazolo[1,5-a]pyrimidin-7(4H)-one] in this work.
An IC50 of 2.24 µM was found for O=c1cc(-c2ccccc2)[nH]c2ncnn12 [Example 8-5, 5-phenyl-[1,2,4]triazolo[1,5-a]pyrimidin-7(4H)-one] in this work.
An IC50 of 0.0258 µM was found for CC(C)c1c(-c2ccc3nccn3c2)[nH]c2ncnn2c1=O [Example 11-69, 5-imidazo[1,2-a]pyridin-6-yl-6-(1-methylethyl)[1,2,4]triazolo[1,5-a]pyrimidin-7(4H)-one] in this work.
An IC50 of 1.26 µM was found for CC(C)c1c(-c2cc3ccccc3n2C)[nH]c2ncnn2c1=O [Example 11-77, 6-(1-methylethyl)-5-(1-methyl-1H-indol-2-yl)[1,2,4]triazolo[1,5-a]pyrimidin-7(4H)-one] in this work.
An IC50 of 0.0512 µM was found for CC(C)c1c(-c2cnn3c2CCC3)[nH]c2ncnn2c1=O [Example 11-112, 5-(5,6-dihydro-4H-pyrrolo[1,2-b]pyrazol-3-yl)-6-(1-methylethyl)[1,2,4]triazolo[1,5-a]pyrimidin-7(4H)-one] in this work.
An IC50 of 0.02 µM was found for CC(C)c1c(-c2cnc3[nH]ccc3c2)[nH]c2ncnn2c1=O [Example 11-68, 6-(1-methylethyl)-5-(1H-pyrrolo[2,3-b]pyridin-5-yl)[1,2,4]triazolo[1,5-a]pyrimidin-7(4H)-one] in this work.
An IC50 of 82.3 µM was found for CC(C)c1cc(=O)n2ncnc2[nH]1 [Example 8-33, 5-(1-methylethyl)[1,2,4]triazolo[1,5-a]pyrimidin-7(4H)-one] in this work.
An IC50 of 0.0373 µM was found for COc1ccc(-c2[nH]c3ncnn3c(=O)c2C(C)C)cc1 [Example 11-58, 5-(4-methoxyphenyl)-6-(1-methylethyl) [1,2,4]triazolo[1,5-a]pyrimidin-7(4H)-one] in this work.
An IC50 of 0.00508 µM was found for CC(C)c1c(-c2cnn(C3CCC3)c2)[nH]c2ncnn2c1=O [Example 11-109, 5-(1-cyclobutyl-1H-pyrazol-4-yl)-6-(1-methylethyl)[1,2,4]triazolo[1,5-a]pyrimidin-7(4H)-one] in this work.
An IC50 of 0.208 µM was found for CC(C)c1c(-c2cccc3[nH]ncc23)[nH]c2ncnn2c1=O [Example 11-71, 5-(1H-indazol-4-yl)-6-(1-methylethyl)[1,2,4]triazolo[1,5-a]pyrimidin-7(4H)-one] in this work.
An IC50 of 0.00878 µM was found for CC(C)c1c(-c2ccc(-n3cccn3)cc2)[nH]c2ncnn2c1=O [Example 11-82, 6-(1-methylethyl)-5-[4-(1H-pyrazol-1-yl)phenyl][1,2,4]triazolo[1,5-a]pyrimidin-7(4H)-one] in this work.
An IC50 of 0.0668 µM was found for CC(C)c1c(-c2ccc(F)nc2)[nH]c2ncnn2c1=O [Example 11-129, 5-(6-fluoropyridin-3-yl)-6-(1-methylethyl)[1,2,4]triazolo[1,5-a]pyrimidin-7(4H)-one] in this work.
An IC50 of 0.00529 µM was found for COCC(C)(C)n1cc(-c2[nH]c3ncnn3c(=O)c2C(C)C)cn1 [Example 11-92, 5-[1-(2-methoxy-1,1-dimethylethyl)-1H-pyrazol-4-yl]-6-(1-methylethyl)[1,2,4]triazolo[1,5-a]pyrimidin-7(4H)-one] in this work.
An IC50 of 0.0201 µM was found for CC(C)c1c(-c2ccc(NS(C)(=O)=O)cc2)[nH]c2ncnn2c1=O [Example 11-100, N-{4-[6-(1-methylethyl)-7-oxo-4,7-dihydro[1,2,4]triazolo[1,5-a]pyrimidin-5-yl]phenyl}methanesulfonamide] in this work.
An IC50 of 0.00893 µM was found for CC(C)c1c(-c2cccc(CC#N)c2)[nH]c2ncnn2c1=O [Example 11-66, {3-[6-(1-methylethyl)-7-oxo-4,7-dihydro[1,2,4]triazolo[1,5-a]pyrimidin-5-yl]phenyl}acetonitrile] in this work.
